According to paper PMC6658769, “First-Time-in-Human Study and Prediction of Early Bactericidal Activity for GSK3036656, a Potent Leucyl-tRNA Synthetase Inhibitor for Tuberculosis Treatment” (Antimicrobial Agents and Chemotherapy, 2019):
In brackets after ≈: the same amount, converted by molar mass. Read-outs that look alike come from different tables or passages of the source. Marks after values point to notes of the source that are not given here.

Assays:
[1] = Nonclinical toxicity studies (NOAEL exposure); assay type: in vivo; conditions: oral
From the text: The principal findings observed in nonclinical toxicity studies following oral administration of GSK3036656 were cardiovascular and hematopoietic, with some minor changes in the liver, kidney, and thymus. The hematopoietic, kidney, liver, and thymus effects are considered either nonadverse or monitorable in the clinic. The structural cardiovascular changes that occurred in a single species at high doses were nonmonitorable but occurred at plasma concentrations where heart rate (HR) and blood pressure (BP) changes are recorded. Specific cardiovascular safety endpoints were included in the first-time-in-human (FTIH) study, including vital sign (HR and BP) stopping criteria.

OATP1B1 = target: T1, OATP1B1 (Homo sapiens, UniProt Q9Y6L6); assay: Direct inhibition of OATP1B1; assay type: in vitro ADME; conditions: in vitro
T1 sequence (Q9Y6L6 1-691): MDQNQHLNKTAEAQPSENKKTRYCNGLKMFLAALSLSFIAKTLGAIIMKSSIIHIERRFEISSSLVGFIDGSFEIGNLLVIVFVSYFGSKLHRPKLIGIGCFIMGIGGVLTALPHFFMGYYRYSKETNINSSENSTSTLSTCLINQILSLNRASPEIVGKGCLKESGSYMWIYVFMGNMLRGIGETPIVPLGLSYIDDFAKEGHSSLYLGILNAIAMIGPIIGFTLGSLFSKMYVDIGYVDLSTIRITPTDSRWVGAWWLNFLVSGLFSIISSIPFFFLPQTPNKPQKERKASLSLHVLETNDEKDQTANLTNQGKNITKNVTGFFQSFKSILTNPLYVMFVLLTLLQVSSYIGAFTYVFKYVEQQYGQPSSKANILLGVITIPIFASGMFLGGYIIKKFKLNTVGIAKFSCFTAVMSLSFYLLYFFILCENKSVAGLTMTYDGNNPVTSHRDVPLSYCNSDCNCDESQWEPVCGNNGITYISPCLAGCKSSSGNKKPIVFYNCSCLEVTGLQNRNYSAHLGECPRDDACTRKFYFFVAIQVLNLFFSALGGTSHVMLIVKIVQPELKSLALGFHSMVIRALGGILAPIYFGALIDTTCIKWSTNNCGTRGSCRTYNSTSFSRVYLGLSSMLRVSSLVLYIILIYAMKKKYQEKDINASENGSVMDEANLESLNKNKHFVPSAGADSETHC

[2] = target: M. tuberculosis enzyme leucyl-tRNA synthetase (LeuRS); parameters: method as in PMID 28953378; conditions: LeuRS aminoacylation assay; cited from earlier work
[3] = human, in vivo
M. tuberculosis H37Rv [4] = assay: Acute lung infection model in mice; assay type: in vivo, C57BL/6 mice
Method: (§1) The efficacy of GSK3036656 was assessed in C57BL/6 mice having acute and chronic lung infections by M. tuberculosis H37Rv, which mimic infections by actively replicating and nonreplicating/slow-replicating mycobacteria, respectively ([13], [14]). In the acute model, 10 mice were administered different daily oral doses ranging from 0.1 to 100 mg/kg of body weight for 8 days starting 1 day after infection. A maximum difference of 3.6 log CFU was obtained in the lungs compared to untreated mice. […] In the chronic model, a total of 18 mice were administered doses ranging from 0.1 to 30 mg/kg from weeks 6 to 14 after infection. Maximum reduction (drop of 2.1 log10 CFU in the lungs) was achieved after 2 months of daily oral treatment and after fitting the data to a sigmoidal curve. The EDmax for GSK3036656 was estimated as 1.3 mg/kg ([…], 0.7 to 3.4 mg/kg). […] Some additional groups treated at 0.3 to 30 mg/kg were studied in the chronic model to obtain kinetic data (from 2 to 16 weeks of treatment).

[5] = dog, in vivo
P-glycoprotein (P-gp) = P-glycoprotein (P-gp) (Homo sapiens, UniProt P08183); assay: P-gp substrate assessment; assay type: in vitro ADME; conditions: not told
[6] = Chronic lung infection model in mice; assay type: in vivo, C57BL/6 mice; conditions: C57BL/6, mouse, in vivo, 1.3 mg/kg, read-out: plasma steady-state AUC associated with EDmax (AUCEDmax), target exposure for efficacy in humans
Method: as §1

M. tuberculosis H37Rv [7] = assay: Chronic lung infection model in mice; assay type: in vivo, C57BL/6 mice
Method: as §1

[8] = target: breast cancer resistance protein (Homo sapiens, UniProt Q9UNQ0); assay: BCRP substrate assessment; assay type: in vitro ADME; conditions: in vitro
[9] = FTIH study part A (single dose): safety and tolerability
[10] = FTIH part B: plasma pharmacokinetics and accumulation after repeat dose; conditions: human, po
CYP3A4 = CYP3A4 (Homo sapiens, UniProt P08684); assay: Metabolism-dependent inhibition or induction of CYP3A4; assay type: in vitro ADME; conditions: in vitro
[11] = assay type: in vitro ADME; conditions: not told
[12] = human, in vivo; remark: listed apart in the source
cytochrome P450s = assay type: in vitro ADME
[13] = FTIH part A: plasma pharmacokinetics after single dose; conditions: human, po
[14] = tested on: M. tuberculosis fast-growing and slow-growing populations; assay: PK/PD parameters estimated from acute and chronic mouse infection models; assay type: in vivo; conditions: for EC50: Mycobacterium tuberculosis
in vitro [15] = assay type: in vitro ADME, humans; conditions: human, plasma
in vitro [16] = assay type: in vitro ADME; conditions: mouse, plasma
[17] = rat, in vivo

CYP3A4, sequence (P08684 whole entry): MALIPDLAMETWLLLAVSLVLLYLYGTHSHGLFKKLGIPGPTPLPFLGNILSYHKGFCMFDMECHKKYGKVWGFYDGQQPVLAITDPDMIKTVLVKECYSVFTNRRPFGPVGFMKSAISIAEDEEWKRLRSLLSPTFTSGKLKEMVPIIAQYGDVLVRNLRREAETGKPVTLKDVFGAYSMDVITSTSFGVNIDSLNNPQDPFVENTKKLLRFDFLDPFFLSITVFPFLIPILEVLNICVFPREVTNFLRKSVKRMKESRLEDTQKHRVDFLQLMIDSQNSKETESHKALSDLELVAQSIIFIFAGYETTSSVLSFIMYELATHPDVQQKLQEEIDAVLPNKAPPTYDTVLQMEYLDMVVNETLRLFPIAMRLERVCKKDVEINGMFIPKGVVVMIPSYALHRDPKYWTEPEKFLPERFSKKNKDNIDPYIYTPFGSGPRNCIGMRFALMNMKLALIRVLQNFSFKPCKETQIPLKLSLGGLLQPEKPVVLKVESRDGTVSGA
breast cancer resistance protein, sequence (Q9UNQ0 whole entry): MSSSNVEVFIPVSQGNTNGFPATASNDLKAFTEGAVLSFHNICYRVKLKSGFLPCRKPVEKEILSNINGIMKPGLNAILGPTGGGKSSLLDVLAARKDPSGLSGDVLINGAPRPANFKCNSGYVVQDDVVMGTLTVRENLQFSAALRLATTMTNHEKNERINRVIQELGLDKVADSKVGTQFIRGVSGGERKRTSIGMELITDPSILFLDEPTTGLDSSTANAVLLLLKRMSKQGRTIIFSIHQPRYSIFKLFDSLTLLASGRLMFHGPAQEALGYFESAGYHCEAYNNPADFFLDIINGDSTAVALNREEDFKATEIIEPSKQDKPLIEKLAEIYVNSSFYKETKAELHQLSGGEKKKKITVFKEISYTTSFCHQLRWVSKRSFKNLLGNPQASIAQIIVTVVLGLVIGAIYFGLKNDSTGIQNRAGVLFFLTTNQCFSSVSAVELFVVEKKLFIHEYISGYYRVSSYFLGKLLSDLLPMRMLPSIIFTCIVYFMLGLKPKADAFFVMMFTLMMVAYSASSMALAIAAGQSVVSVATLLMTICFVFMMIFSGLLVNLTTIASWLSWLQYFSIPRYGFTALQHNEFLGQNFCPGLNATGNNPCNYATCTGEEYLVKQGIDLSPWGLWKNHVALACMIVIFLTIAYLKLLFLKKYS
P-glycoprotein (P-gp), sequence (P08183 whole entry): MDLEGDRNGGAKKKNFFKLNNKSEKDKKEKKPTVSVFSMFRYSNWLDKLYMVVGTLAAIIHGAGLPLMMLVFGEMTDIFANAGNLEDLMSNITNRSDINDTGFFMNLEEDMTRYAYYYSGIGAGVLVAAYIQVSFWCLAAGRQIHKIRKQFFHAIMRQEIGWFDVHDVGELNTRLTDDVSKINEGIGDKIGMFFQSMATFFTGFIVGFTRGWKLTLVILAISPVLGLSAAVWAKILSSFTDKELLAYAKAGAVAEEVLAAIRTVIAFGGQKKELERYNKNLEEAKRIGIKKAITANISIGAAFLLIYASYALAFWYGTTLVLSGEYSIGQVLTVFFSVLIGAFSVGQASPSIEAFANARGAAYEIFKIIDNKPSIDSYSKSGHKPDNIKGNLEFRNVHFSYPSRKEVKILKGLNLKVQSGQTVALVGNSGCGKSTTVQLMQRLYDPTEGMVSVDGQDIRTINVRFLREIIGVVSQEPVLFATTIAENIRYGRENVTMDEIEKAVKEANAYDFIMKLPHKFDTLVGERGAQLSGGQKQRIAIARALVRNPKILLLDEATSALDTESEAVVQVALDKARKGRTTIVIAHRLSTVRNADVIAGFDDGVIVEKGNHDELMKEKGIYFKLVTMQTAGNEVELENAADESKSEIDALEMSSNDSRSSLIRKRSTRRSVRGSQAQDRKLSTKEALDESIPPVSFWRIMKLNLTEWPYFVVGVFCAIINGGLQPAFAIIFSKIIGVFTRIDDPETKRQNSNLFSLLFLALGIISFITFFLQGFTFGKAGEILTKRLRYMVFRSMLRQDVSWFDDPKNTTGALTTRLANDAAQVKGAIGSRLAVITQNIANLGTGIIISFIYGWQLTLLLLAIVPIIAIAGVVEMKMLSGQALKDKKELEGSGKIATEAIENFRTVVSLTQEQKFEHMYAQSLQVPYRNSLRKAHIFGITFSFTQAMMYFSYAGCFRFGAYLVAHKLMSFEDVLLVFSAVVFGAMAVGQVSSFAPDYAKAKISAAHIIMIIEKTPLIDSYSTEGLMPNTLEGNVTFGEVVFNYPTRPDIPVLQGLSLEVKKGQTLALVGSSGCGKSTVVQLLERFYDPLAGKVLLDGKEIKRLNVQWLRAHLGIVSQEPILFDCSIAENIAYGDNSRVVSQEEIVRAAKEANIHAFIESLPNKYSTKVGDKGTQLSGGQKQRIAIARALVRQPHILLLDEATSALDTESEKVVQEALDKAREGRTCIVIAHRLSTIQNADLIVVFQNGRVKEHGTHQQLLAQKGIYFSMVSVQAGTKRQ

Q: Which AUC ([1]; plasma) does the source give for `NC[C@H]1OB(O)c2c(OCCO)ccc(Cl)c21` [GSK3036656, (S)-3-(aminomethyl)-4-chloro-7-(2-hydroxyethoxy)benzo[c][1,2]oxaborol-1(3H)-ol] here?
A: Its AUC is 4900 ng·h/mL.

Q: What about the Cmax ([1]; serum) of the same molecule?
A: Its Cmax is less than 443 ng/mL.

Q: What about the “direct inhibition of OATP1B1” value (OATP1B1) of the same molecule?
A: The value was “minimal evidence for direct inhibition”.

Q: What about the “50% inhibitory concentration (IC50)” value [2] of the same molecule?
A: Its value is 0.0588 µg/mL.

Q: And the “Tmax difference (fed-fasted)” value [3]?
A: The value was 0.75^b h.

Q: And the “maximum difference in the lungs compared to untreated mice” value (M. tuberculosis H37Rv [4]; daily oral doses 0.1 to 100 mg/kg for 8 days)?
A: Its value is 3.6 log CFU.

Q: What about the “EDmax (effective dose giving 90% of the total effect)” value (M. tuberculosis H37Rv [4]; sigmoidal fit) of the same molecule?
A: Its value is 1.1 mg/kg.

Q: What about the oral bioavailability [5] of the same molecule?
A: The oral bioavailability was “very high”.

Q: And the P-gp substrate (P-glycoprotein (P-gp))?
A: The P-gp substrate was “not a P-glycoprotein (P-gp) substrate”.

Q: What about the AUC [6] of the same molecule?
A: The AUC was 1740 ng·h/mL.

Q: What about the “maximum reduction (drop of CFU in the lungs)” value (M. tuberculosis H37Rv [7]; 2 months of daily oral treatment) of the same molecule?
A: Its value is 2.1 log10 CFU.

Q: What about the EDmax (M. tuberculosis H37Rv [7]; sigmoidal fit) of the same molecule?
A: The EDmax was 1.3 mg/kg.

Q: What about the “substrate specificity for breast cancer resistance protein” value [8] of the same molecule?
A: Its value is “lack of substrate specificity”.

Q: And the “No. (%) of subjects with AE: Musculoskeletal chest pain” value (“No. (%) of subjects with AE” below) ([9]; single dose 5 mg (n = 6))?
A: Its value is 0 No. (%).

Q: And the “No. (%) of subjects with AE” value ([9]; single dose 5 mg, fed (n = 5))?
A: The value was 0 No. (%).

Q: And the “No. (%) of subjects with AE” value ([9]; single dose 15 mg (n = 6))?
A: Its value is 0 No. (%).

Q: What about the “No. (%) of subjects with AE” value ([9]; single dose 25 mg (n = 6)) of the same molecule?
A: Its value is 1 (17) No. (%).

Q: What about the half-life at 14 days ([10]; 5 mg) of the same molecule?
A: Its half-life at 14 days is 44 h.

Q: And the half-life at 14 days ([10]; 15 mg)?
A: Its half-life at 14 days is 37 h.

Q: And the “metabolism-dependent inhibition or induction of CYP3A4” value (CYP3A4)?
A: Its value is “no evidence”.

Q: And the passive permeability [11]?
A: The passive permeability was “moderate”.

Q: And the “dose-proportionality slope, Cmax” value ([12]; both)?
A: Its value is 1.19.

Q: What about the “steady-state AUC relative to the target exposure for efficacy in humans (1,740 ng · h/ml)” value ([12]; both) of the same molecule?
A: The value was “approximately 2.5 fold”.

Q: And the “accumulation of Cmax and AUC0–τ with repeated administration” value ([12]; both, 14 days)?
A: The value was 2-3 fold.

Q: And the “dose-proportionality slope, Cmax” value ([12]; both, 14 days)?
A: Its value is 1.06.

Q: And the “RoCmax, geometric LS mean, Ref” value ([12]; 5 mg)?
A: Its value is 48.40 ng/mL.

Q: What about the “RoCmax, geometric LS mean, Test” value ([12]; 5 mg) of the same molecule?
A: Its value is 97.04 ng/mL.

Q: And the “RoCmax, geometric LS mean, Ref” value ([12]; 15 mg)?
A: Its value is 178.79 ng/mL.

Q: And the “RoCmax, geometric LS mean, Test” value ([12]; 15 mg)?
A: Its value is 309.55 ng/mL.

Q: And the “direct inhibition of cytochrome P450s” value (cytochrome P450s)?
A: The value was “minimal evidence for direct inhibition”.

Q: What about the half-life ([13]; both, 5 mg) of the same molecule?
A: The half-life was 40.9 h.

Q: What about the half-life ([13]; both, 15 mg) of the same molecule?
A: The half-life was 28.4 h.

Q: What about the half-life ([13]; 25 mg) of the same molecule?
A: The half-life was 49.9 h.

Q: And the EC50 ([14]; fast-growing population, SE = 13%, read-out: EC50-F in mouse)?
A: The EC50 was 0.0156 µg/mL (≈ 0.0606 µM).

Q: What about the EC50 ([14]; slow-growing population, SE = 23%, read-out: EC50-S in mouse) of the same molecule?
A: Its EC50 is 0.0317 µg/mL (≈ 0.123 µM).

Q: And the “Emax-S (maximum killing rate against a slow-growing population)” value ([14]; fixed to estimated value from mouse infection models)?
A: The value was 0.0037 (FIX)^b h^−1.

Q: What about the fraction unbound (in vitro [15]) of the same molecule?
A: The fraction unbound was 0.838.

Q: And the fraction unbound (in vitro [16])?
A: Its fraction unbound is 0.792.

Q: And the oral bioavailability [17]?
A: The oral bioavailability was “very high”.
